Measurements: patent US20050054103A1, “Expansion of renewable stem cell populations using modulators of PI 3-kinase” (priority 2003, published 2005)

Tests used:
CD34+ cell cultures = assay: Colony forming unit (CFU, LTC-CFUc) ability of RAR antagonist treated CD34+ cultures; type: cell-based, human; details: for No. of CFU*103: RAR antagonist 10^−5 M for one week only
Procedure: Cells were cloned in semi-solid, methylcellulose-containing medium supplemented with 2 IU/ml erythropoietin (Eprex, Cilag AG Int., Switzerland), stem cell factor and IL-3, both at 20 ng/ml, and G-CSF and GM-CSF, both at 10 ng/ml (all from Perpo Tech). Cultures were incubated for 14 days at 37° C., 5% CO2 in a humidified atmosphere.
Briefly, the ability of the cultures to maintain self-renewal was measured by determination of the content of colony forming unit cells in the long and extended long-term cultures (LTC-CFUc), as described in the references hereinabove.
Long-term CD34^+ cell cultures were supplemented with a combination of 4 cytokines, Flt3, TPO, IL-6 and IL-3, with and without varying predetermined concentrations of the RAR antagonist AGN 194310. RAR antagonist treatment of the cultures was for a limited period of three weeks or was continuous during the entire culture period. The ability to form CFUs was determined for long-term (6 weeks) cultures treated with 2 doses of the RAR antagonist for a short pulse or continuously and was compared to control samples treated with cytokines alone.

mononuclear cells = assay: RAR antagonist treatment of mononuclear cell fraction cultures; type: cell-based, human; details: Cytokines + RAR antagonist 10^−6 M; for % CD34/Lin^−: reselected CD34+ fraction
Procedure: Human blood cells were obtained from umbilical cord blood from female patients following full-term, normal delivery (informed consent was obtained). Samples were collected and processed within 12 hours postpartum. Blood was mixed with 3% Gelatin (Sigma, St. Louis, Mo.), sedimented for 30 minutes to remove most red blood cells. The leukocyte-rich fraction was harvested and layered on a Ficoll-Hypaque gradient (1.077 gram/ml; Sigma), and centrifuged at 400 g for 30 minutes. The mononuclear cell fraction in the interface layer was collected, washed three times and resuspended in phosphate-buffered saline (PBS) solution (Biological Industries) containing 0.5% bovine serum albumin (BSA, Fraction V; Sigma).
Alternatively, whole mononuclear fraction cells (MNC) were isolated, cultured and supplemented with cytokines, as above.
CD34^+ purified and whole MNC cultures were prepared and maintained as described above. AGN 194310 RAR antagonist was added to test cultures at concentrations ranging from […] [or 410 μg/l to 4.1×10^−5 μg/l]. The antagonist was added for a predetermined, limited period, for up to three weeks or continuously during the entire culture period.
CD34 surface expression on short and long-term cultures initiated either with purified CD34^+ cells or the entire MNC fraction was determined as follows: CD34^+ cells were positively reselected (Miltenyi kit) and counted. Purity was confirmed by subsequent FACS and cell morphology analysis.
Reselected CD34^+ cell subsets were stained for the following combination of antigens: CD34PE/CD38FITC and CD34PE/38, 33, 14, 15, 3, 4, 61, 19 (Lin) FITC. The fraction positive for CD34 and negative for CD38 was defined as CD34^+CD38^−. The fraction positive for CD34 and negative for LIN was defined as CD34^+Lin^− cell fraction.

NOD/SCID mice = assay: Engraftment of SCID mice by ex-vivo expanded human hematopoietic cells; type: in vivo; details: for Engraftment CD19 (%) / Engraftment CD34 (%) / Engraftment CD45 (%) / Engraftment Colonies (per 2 × 10^5 SCID BM cells): TEPA + Cytokines
Procedure: Engraftment of SCID mice by ex-vivo expanded human hematopoietic cells: […] After 4 weeks, the mice were sacrificed and their femora and tibias were excised and the bone marrow flushed with a syringe fitted with a 25 gauge needle. A single cell suspension was prepared, the cells were washed and an aliquot counted with Trypan blue. In order to quantitate engrafted cells of human origin, cells were stained with FITC-conjugated anti CD45 antibodies and PE-conjugated either anti CD34, CD19 or CD33 antibodies. Anti CD45 antibodies recognize human, but not mouse, cells, and thus, indicates the human origin of the cells. The proliferation and differentiation potential of the engrafted cells was assayed by cloning bone marrow cells in semi-solid medium under conditions that allow specifically growth of human derived colonies essentially as described in (56).

HL-60 cells = assay: Copper determination in chelator treated cells (atomic absorption); type: cell-based, human
Procedure: Copper Determination: Cells were harvested by centrifugation at 1000×g for 5 minutes. The cell pellet was washed three times by re-suspending the cells in PBS (Ca^++ and Mg^++ free) and centrifugation at 1000×g. An aliquot containing 2×10^6 cells was then transferred into a metal-free Eppendorf tube and the cells were recovered by centrifugation at 1000×g. The cell pellet was re-suspended in 0.03 M ultra-pure nitric acid to give a concentration of 1×10^7 cells/ml. The cells were homogenized with a high shear mixer (polytron, Kinematica, Switzerland) for 1 minutes to disrupt the cell and release intracellular copper content. Cell samples were vortexed before transferring to a vial autosampler and analyzed in duplicate by a Perkin Elmer graphite furnace atomic absorption spectrophotometer at a wavelength of 324.7 nm. The samples were analyzed against copper standard solution prepared from a commercial stock solution that was diluted with 0.03 M ultra pure nitric acid.
FIG. 44 provides the chemical structure of the various chelators employed in these experiments.

[1] = CB 2 (first listed) 10% FCS, 2 weeks ex-vivo
[2] = CB 2 (second listed) 10% FCS, 2 weeks ex-vivo

CCc1ccc(C2=CC(C)(C)Sc3ccc(C#Cc4ccc(C(=O)O)cc4)cc32)cc1 [AGN 194310]
No. of CFU*103 (CD34+ cell cultures; week 13): 66355 *103
No. of CFU*103 (CD34+ cell cultures; week 20): 0 *103
increase of CFU content (CD34+ cell cultures; extended long-term cultures (week 6 to 10), pulse or continuous treatment): 15×10^4
increase in CFU content as compared to control (CD34+ cell cultures; long-term (6 weeks) cultures, pulsed first 3 weeks or continuous antagonist): 5 fold
No of CD34^+/Lin^− × 10^4 (cumulative value) (mononuclear cells; 2 weeks): 132.5 × 10^4
No of CD34 cells × 10^4 (cumulative value) (mononuclear cells; 2 weeks): 169 × 10^4
% CD34/Lin^− (mononuclear cells; 2 weeks): 78%
No of CD34^+/Lin^− × 10^4 (cumulative value) (mononuclear cells; 5 weeks): 237.8 × 10^4
No of CD34 cells × 10^4 (cumulative value) (mononuclear cells; 5 weeks): 985 × 10^4
% CD34/Lin^− (mononuclear cells; 5 weeks): 24%

NCCNCCNCCNCCN [TEPA, tetraethylenepentamine]
Engraftment CD19 (%) (NOD/SCID mice; [1]): 11%
Engraftment CD34 (%) (NOD/SCID mice; [1]): 13%
Engraftment CD45 (%) (NOD/SCID mice; [1]): 56%
Engraftment Colonies (per 2 × 10^5 SCID BM cells) (NOD/SCID mice; [1]): 330
Engraftment CD19 (%) (NOD/SCID mice; [2]): 9%
Engraftment CD34 (%) (NOD/SCID mice; [2]): 13.5%
Engraftment CD45 (%) (NOD/SCID mice; [2]): 48%
Engraftment Colonies (per 2 × 10^5 SCID BM cells) (NOD/SCID mice; [2]): 528
Engraftment CD19 (%) (NOD/SCID mice; CB 3 10% FCS, 2 weeks ex-vivo): 5%
Engraftment CD34 (%) (NOD/SCID mice; CB 3 10% FCS, 2 weeks ex-vivo): 4%
Engraftment CD45 (%) (NOD/SCID mice; CB 3 10% FCS, 2 weeks ex-vivo): 20%
Engraftment Colonies (per 2 × 10^5 SCID BM cells) (NOD/SCID mice; CB 3 10% FCS, 2 weeks ex-vivo): 100
Engraftment CD19 (%) (NOD/SCID mice; CB 4 1% FCS, 2 weeks ex-vivo): 8%
Engraftment CD34 (%) (NOD/SCID mice; CB 4 1% FCS, 2 weeks ex-vivo): 7%
Engraftment CD45 (%) (NOD/SCID mice; CB 4 1% FCS, 2 weeks ex-vivo): 28%
Engraftment Colonies (per 2 × 10^5 SCID BM cells) (NOD/SCID mice; CB 4 1% FCS, 2 weeks ex-vivo): 185
Engraftment CD19 (%) (NOD/SCID mice; CB 4 1% FCS, 4 weeks ex-vivo): 14%
Engraftment CD34 (%) (NOD/SCID mice; CB 4 1% FCS, 4 weeks ex-vivo): 9%
Engraftment CD45 (%) (NOD/SCID mice; CB 4 1% FCS, 4 weeks ex-vivo): 40%
Engraftment Colonies (per 2 × 10^5 SCID BM cells) (NOD/SCID mice; CB 4 1% FCS, 4 weeks ex-vivo): 267
Engraftment CD19 (%) (NOD/SCID mice; CB 5- FCS, 4 weeks ex-vivo): 9%
Engraftment CD34 (%) (NOD/SCID mice; CB 5- FCS, 4 weeks ex-vivo): 6%
Engraftment CD45 (%) (NOD/SCID mice; CB 5- FCS, 4 weeks ex-vivo): 21%
Engraftment Colonies (per 2 × 10^5 SCID BM cells) (NOD/SCID mice; CB 5- FCS, 4 weeks ex-vivo): 275
Engraftment CD19 (%) (NOD/SCID mice; CB 6 1% FCS, 2 weeks ex-vivo): 19%
Engraftment CD34 (%) (NOD/SCID mice; CB 6 1% FCS, 2 weeks ex-vivo): 16%
Engraftment CD45 (%) (NOD/SCID mice; CB 6 1% FCS, 2 weeks ex-vivo): 73%
Engraftment Colonies (per 2 × 10^5 SCID BM cells) (NOD/SCID mice; CB 6 1% FCS, 2 weeks ex-vivo): 350
Engraftment CD19 (%) (NOD/SCID mice; CB 6 10% FCS, 2 weeks ex-vivo): 26%
Engraftment CD34 (%) (NOD/SCID mice; CB 6 10% FCS, 2 weeks ex-vivo): 9%
Engraftment CD45 (%) (NOD/SCID mice; CB 6 10% FCS, 2 weeks ex-vivo): 73%
Engraftment Colonies (per 2 × 10^5 SCID BM cells) (NOD/SCID mice; CB 6 10% FCS, 2 weeks ex-vivo): 420
cord blood samples (of 6) expanded ex-vivo that succeeded to engraft the animals (NOD/SCID mice; expanded in the presence of TEPA): 6
Average Intracellular ppb Cu (HL-60 cells; 20 μM chelator): 31.5 ppb
Average Intracellular ppb Cu (HL-60 cells; 100 μM chelator): 24.1 ppb
Average Intracellular ppb Cu (HL-60 cells; 500 μM chelator): 17.1 ppb
activity at 20 µM (HL-60 cells; Homo sapiens, HL-60, 20 μM chelator, read-out: Average Intracellular Cu (% of control)): 64%
activity at 100 µM (HL-60 cells; Homo sapiens, HL-60, 100 μM chelator, read-out: Average Intracellular Cu (% of control)): 49%
activity at 500 µM (HL-60 cells; Homo sapiens, HL-60, 500 μM chelator, read-out: Average Intracellular Cu (% of control)): 35%
